Measured values from ChEMBL document CHEMBL4613209, “Quinolone hybrids and their anti-cancer activities: An overview” (Eur J Med Chem, 2019).
pIC50: −log10 of the molar value. Converted amounts (≈) assume the structure as drawn. Each block holds one compound with its values, some of them ahead of it.

Assays:
[1] = system: PANC-1; assay: Antiproliferative activity against human PANC1 cells after 48 hrs by MTT assay; type: functional, cell-based; conditions: PANC-1, 48 h
[2] = system: HCT-116; assay: Antiproliferative activity against human HCT116 cells after 48 hrs by MTT assay; type: functional, cell-based; conditions: HCT-116, 48 h
[3] = system: HeLa; assay: Antiproliferative activity against human HeLa cells after 48 hrs by MTT assay; type: functional, cell-based
[4] = system: A549; assay: Antiproliferative activity against human A549 cells after 48 hrs by MTT assay; type: functional, cell-based; conditions: A549, 48 h
[5] = system: K562; assay: Anticancer activity against human K562 cells; type: functional, cell-based
[6] = system: HT-1080; assay: Cytotoxicity against human HT1080 cells assessed as reduction in cell viability; type: functional, cell-based
[7] = system: A549; assay: Cytotoxicity against human A549 cells assessed as reduction in cell viability; type: functional, cell-based
[8] = system: HT-29; assay: Cytotoxicity against human HT-29 cells assessed as reduction in cell viability; type: functional, cell-based
[9] = system: P388; assay: Cytotoxicity against mouse P388 cells assessed as reduction in cell viability; type: functional, cell-based
[10] = system: P388; assay: Cytotoxicity against doxorubicin resistant mouse P388 cells assessed as reduction in cell viability; type: functional, cell-based
[11] = system: B16-F10; assay: Cytotoxicity against mouse B16F10 cells assessed as reduction in cell viability; type: functional, cell-based
[12] = Toxicity in mouse xenografted with human CX-1 cells; conditions: in vivo
[13] = Toxicity in mouse xenografted with human MB-9812 cells
[14] = system: A549; assay: Anticancer activity against human A549 cells; type: functional, cell-based
[15] = system: HT-29; assay: Anticancer activity against human HT-29 cells; type: functional, cell-based
[16] = system: HCT-8; assay: Anticancer activity against human HCT8 cells; type: functional, cell-based
[17] = system: MCF7; assay: Anticancer activity against human MCF7 cells; type: functional, cell-based
[18] = system: B16-F10; assay: Anticancer activity against mouse B16F10 cells; type: functional, cell-based
[19] = system: Lewis lung carcinoma cell line; assay: Anticancer activity against mouse LLC cells; type: functional, cell-based
[20] = system: P388; assay: Anticancer activity against mouse P388 cells; type: functional, cell-based
[21] = system: P388; assay: Anticancer activity against doxorubicin resistant mouse P388 cells; type: functional, cell-based
[22] = system: SiHa; assay: Growth inhibition of human SiHa cells after 48 hrs by SRB assay; type: functional
[23] = system: MDA-MB-231; assay: Growth inhibition of human MDA-MB-231 cells after 48 hrs by SRB assay; type: functional; conditions: MDA-MB-231, 48 h
[24] = system: A549; assay: Antiproliferative activity against human A549 cells by CCK8 assay; type: functional, cell-based
[25] = system: HepG2; assay: Antiproliferative activity against human HepG2 cells by CCK8 assay; type: functional, cell-based
[26] = system: MCF7; assay: Antiproliferative activity against human MCF7 cells by CCK8 assay; type: functional, cell-based
[27] = system: PC-3; assay: Antiproliferative activity against human PC3 cells by CCK8 assay; type: functional, cell-based
[28] = system: HeLa; assay: Antiproliferative activity against human HeLa cells by CCK8 assay; type: functional, cell-based
[29] = system: MCF-10A; assay: Antiproliferative activity against human MCF10A cells by CCK8 assay; type: cell-based
[30] = biological target: Histone deacetylase; assay: Inhibition of HDAC (unknown origin); type: protein assay, Homo sapiens
[31] = biological target: Tubulin; assay: Inhibition of tubulin polymerization (unknown origin); type: protein-complex assay, Homo sapiens
[32] = system: MCF7; assay: Cytotoxicity against human MCF7 cells assessed as reduction in cell viability by SRB assay; type: functional, cell-based
[33] = system: HCT-116; assay: Cytotoxicity against human HCT116 cells assessed as reduction in cell viability by SRB assay; type: functional, cell-based
[34] = system: PANC-1; assay: Growth inhibition of human PANC1 cells after 48 hrs by SRB assay; type: functional; conditions: PANC-1, 48 h
[35] = system: SW1990; assay: Cytotoxicity against human SW1990 cells assessed as reduction in cell viability by MTT assay; type: functional, cell-based
[36] = system: SMMC-7721; assay: Cytotoxicity against human SMMC7721 cells assessed as reduction in cell viability by MTT assay; type: functional, cell-based
[37] = system: HUVEC; assay: Cytotoxicity against human HUVEC cells assessed as reduction in cell viability by MTT assay; type: cell-based

Compound: CC[C@H](CC[C@@H](C)[C@H]1CC[C@H]2[C@@H]3CC=C4C[C@@H](O)CC[C@]4(C)[C@H]3CC[C@]12C)C(C)C [BETA-SITOSTEROL]
- pIC50 [6]: 4.80 to 5.60

Compound: CCC[C@H](N)C(=O)NC1CCN(C2C(F)=Cc3c4n(cc(C(=O)O)c3=O)-c3ccccc3OC42)C1 (some centres not stated)
- IC50 [7]: 0.01 to 1 µg/mL (≈ 0.0207 to 2.07 µM)
- IC50 [8]: 0.01 to 1 µg/mL (≈ 0.0207 to 2.07 µM)
- IC50 [9]: 0.01 to 1 µg/mL (≈ 0.0207 to 2.07 µM)
- IC50 [10]: 0.01 to 1 µg/mL (≈ 0.0207 to 2.07 µM)
- IC50 [11]: 0.01 to 1 µg/mL (≈ 0.0207 to 2.07 µM)
- LD50 [12]: 59.6 mg/kg
- LD50 [13]: 59.6 mg/kg
- pIC50 [14]: 6.31 to 7.52
- pIC50 [15]: 6.31 to 7.52
- pIC50 [16]: 6.31 to 7.52
- pIC50 [17]: 6.31 to 7.52
- pIC50 [18]: 6.31 to 7.52
- pIC50 [19]: 6.31 to 7.52
- pIC50 [20]: 6.31 to 7.52
- pIC50 [21]: 6.31 to 7.52

Compound: Cc1cc2c(n1-c1ccccc1)CCc1cc(S(=O)(=O)c3ccccc3)c(O)nc1-2
- pIC50 [6]: 5.44 to 6.40

Compound: CN(Cc1cnc2nc(N)nc(N)c2n1)c1ccc(C(=O)N[C@@H](CCC(=O)O)C(=O)O)cc1 [METHOTREXATE]
- LD50 [12]: 5 mg/kg
- LD50 [13]: 5 mg/kg

Compound: N#Cc1c(N)c2cc(-c3nc4ccccc4o3)ccc2[nH]c1=O
- pIC50 [32]: 7.57
- pIC50 [33]: 7.45

Compound: CCn1cc(C(=O)O)c(=O)c2cnc(N3CCN(C(=O)CCSc4nnnn4Cc4ccccc4)CC3)nc21
- GI50 [22]: ≤ 0.1 µM
- GI50 [23]: ≤ 0.1 µM

Compound: CCn1cc(C(=O)O)c(=O)c2cnc(N3CCN(C(=O)CCSc4nnnn4-c4cc(OC)c(OC)c(OC)c4)CC3)nc21
- GI50 [22]: 0.06 to 2 µM
- GI50 [23]: 0.06 to 2 µM
- GI50 [34]: 0.06 to 2 µM

Compound: COc1ccc2cc3[n+](cc2c1OC)CCc1cc2c(cc1-3)OCO2 [BERBERINE]
- pIC50 [35]: 4.18 to 4.74
- pIC50 [36]: 4.18 to 4.74
- pIC50 [37]: 4.18 to 4.74

Continued, in another order:

- pIC50 [1]: < 5.00
- pIC50 [2]: < 5.00
- pIC50 [3]: < 5.00
- pIC50 [4]: < 5.00
Compound: CN(C)Cc1cn(-c2cc3c(cc2F)c(=O)c(C(=O)NO)cn3C2CC2)nn1

- pIC50 [5]: 4.19
Compound: NC(=O)c1cn([C@@H]2O[C@H](CO)[C@@H](O)[C@H]2O)c2ccc(Nc3ccccc3)cc2c1=O

- pIC50 [1]: < 5.00
- pIC50 [2]: < 5.00
- pIC50 [3]: < 5.00
- pIC50 [4]: < 5.00
Compound: CC(C)NCc1cn(-c2cc3c(cc2F)c(=O)c(C(=O)NO)cn3C2CC2)nn1

- GI50 [23]: ≤ 0.1 µM
Compound: O=C(O)c1cn(C2CC2)c2cc(N3CCN(C(=O)CCSc4nnnn4Cc4ccccc4)CC3)c(F)cc2c1=O
- GI50 [22]: ≤ 0.1 µM

- GI50 [23]: ≤ 0.1 µM
Compound: CCn1cc(C(=O)O)c(=O)c2cnc(N3CCN(C(=O)CCSc4nnnn4-c4ccc(F)c(F)c4F)CC3)nc21
- GI50 [22]: ≤ 0.1 µM

- pIC50 [24]: 4.89 to 6.52
- pIC50 [25]: 4.89 to 6.52
- pIC50 [26]: 4.89 to 6.52
- pIC50 [27]: 4.89 to 6.52
- pIC50 [28]: 4.89 to 6.52
- pIC50 [30]: 6.07 to 7.68
- pIC50 [31]: 5.20 to 5.75
Compound: C[C@H]1COc2c(N3CCN(C)CC3)c(F)cc3c(=O)c(C(=O)NCc4cn(CCCCCCCC(=O)NO)nn4)cn1c23
- pIC50 [29]: < 4.00

- GI50 [23]: ≤ 0.1 µM
Compound: O=C(O)c1cn(C2CC2)c2cc(N3CCN(C(=O)CCSc4nnnn4-c4ccc(Br)cc4)CC3)c(F)cc2c1=O
- GI50 [22]: ≤ 0.1 µM

- pIC50 [5]: 3.70 to 4.19
Compound: CCOC(=O)c1cn([C@@H]2O[C@H](CO)[C@@H](O)[C@H]2O)c2ccc(Nc3ccccc3)cc2c1=O

- pIC50 [1]: < 5.00
- pIC50 [2]: < 5.00
- pIC50 [3]: < 5.00
- pIC50 [4]: < 5.00
Compound: O=C(NO)c1cn(C2CC2)c2cc(-n3cc(CN4CCOCC4)nn3)c(F)cc2c1=O
